According to article PMC11032351, “Epigenetic modulation through BET bromodomain inhibitors as a novel therapeutic strategy for progranulin-deficient frontotemporal dementia” (Scientific Reports, 2024):

Tests used:
[1] = system: lysosomal genes; assay: RNA sequencing of human dermal fibroblasts, lysosomal genes; type: cell-based; settings: 24 h
Protocol: Non-immortalized HDF cells (UCSF Memory and Aging Center, FTD25(X)) were cultured in high glucose DMEM with 10% FBS with supplemented L-glutamine and Pen/Strep, and grown in 100 mm plates for treatment. Cells were treated with DMSO or 1 μM mivebresib (1% DMSO) for 24 h. Trizol (Invitrogen) was used to isolate total cellular RNA, according to the manufacturer's protocol. RNA concentrations were assessed using a NanoDrop spectrophotometer (Thermo Scientific) and samples were diluted to 100 ng/10 μL in nuclease-free water (Ambion). 5 μg of each RNA sample was submitted for processing. Gene set enrichment analysis for lysosomal genes (list from Sardiello et al. 2009, Table S1) was performed using GSEA Desktop v3.0, with the following input parameters: number of permutations: 1000, scoring scheme: weighted, normalization mode: […], ranking metric: Signal2Noise, sorting: real[42]-[44]. […] Input queried against “Literature” library.

[2] = system: PGRN-Luc; assay: HMC3 PGRN-luciferase reporter assay; type: cell-based, human; settings: HMC3 PGRN-Luc cells, 8 h of treatment
Protocol: HMC3 PGRN-Luc cells were trypsinized from confluent T-75 flasks and re-suspended in HMC-3 media at 150,000–200,000 cells/mL. 30 µL of cell suspension was then seeded onto each well of black, 384-well clear-bottom plates (Corning 3712) using the Multidrop Combi (Thermo Fisher). Cells were allowed to adhere to plates in the incubator at 37 °C/5% CO2 for 6–8 h. After 6–8 h, compounds were added to each well using the D300e (Tecan) compound dispenser, and all wells were DMSO-normalized (0.3%). Cells were allowed to incubate with compounds for indicated timeframes.
Plates were removed from the incubator and allowed to cool to RT. 15 µL of media was removed from each well using a multichannel pipette and added to separate Corning 3712 plates for a read of “secreted” PGRN. To both the media-containing plates as well as the cell-containing plates (with 15 µL media remaining) is then added 15 µL of active luminescence reagent (Thermo 18,636) which was generated according to manufacturer’s instructions. Plates were allowed to nutate at RT for 15 min prior to reading using the EnVision (PerkinElmer). For calculation of the internal PGRN-Luc signal, the secreted signal (15 µL media) was subtracted from the signal of the cell-containing plates (with 15 µL media remaining). For “total” PGRN-Luc signal, a sample of media was not aliquoted into a separate plate, and instead, 30 µL of active luminescence reagent was added directly to each well.
For the mivebresib and panobinostat time-course experiment, the above procedure was followed, with the exception that cells were seeded at 66,600 cells/mL in 30 µL media, and allowed to grow overnight prior to compound addition for the indicated timeframes.

With CCS(=O)(=O)Nc1ccc(Oc2ccc(F)cc2F)c(-c2cn(C)c(=O)c3[nH]ccc23)c1 [mivebresib] the “lysosomal genes significantly upregulated” value ([1]; 1 µM, pre-defined list of lysosomal genes) was 68/89, the “Log2(fold-change) ABCA2” value ([1]; gene ABCA2, 1 µM, vs DMSO) was 0.969 and the “Log2(fold-change) ABCB9” value ([1]; gene ABCB9, 1 µM, vs DMSO) was 0.753. The “Log2(fold-change) ACP2” value ([1]; gene ACP2, 1 µM, vs DMSO) was 0.071, the “Log2(fold-change) ACP5” value ([1]; gene ACP5, 1 µM, vs DMSO) was 1.631 and the “Log2(fold-change) AGA” value ([1]; gene AGA, 1 µM, vs DMSO) was 1.111. The “Log2(fold-change) ARSA” value ([1]; gene ARSA, 1 µM, vs DMSO) was 0.958, the “Log2(fold-change) ARSB” value ([1]; gene ARSB, 1 µM, vs DMSO) was 0.697 and the “Log2(fold-change) ARSG” value ([1]; gene ARSG, 1 µM, vs DMSO) was 0.426. For the same compound, the “Log2(fold-change) ASAH1” value ([1]; gene ASAH1, 1 µM, vs DMSO) was 1.724, the “Log2(fold-change) CD63” value ([1]; gene CD63, 1 µM, vs DMSO) was 0.465 and the “Log2(fold-change) CD68” value ([1]; gene CD68, 1 µM, vs DMSO) was 0.237. The “Log2(fold-change) CLCN7” value ([1]; gene CLCN7, 1 µM, vs DMSO) was 1.349, the “Log2(fold-change) CLN3” value ([1]; gene CLN3, 1 µM, vs DMSO) was -0.112 and the “Log2(fold-change) CLN5” value ([1]; gene CLN5, 1 µM, vs DMSO) was 0.974. The “Log2(fold-change) CPVL” value ([1]; gene CPVL, 1 µM, vs DMSO) was 4.550, the “Log2(fold-change) CREG1” value ([1]; gene CREG1, 1 µM, vs DMSO) was 1.959 and the “Log2(fold-change) CTBS” value ([1]; gene CTBS, 1 µM, vs DMSO) was -0.006. For the same compound, the “Log2(fold-change) CTNS” value ([1]; gene CTNS, 1 µM, vs DMSO) was 1.077, the “Log2(fold-change) CTSA” value ([1]; gene CTSA, 1 µM, vs DMSO) was 1.344 and the “Log2(fold-change) CTSB” value ([1]; gene CTSB, 1 µM, vs DMSO) was 0.947. For the same compound, the “Log2(fold-change) CTSC” value ([1]; gene CTSC, 1 µM, vs DMSO) was 0.179, the “Log2(fold-change) CTSD” value ([1]; gene CTSD, 1 µM, vs DMSO) was 1.383 and the “Log2(fold-change) CTSF” value ([1]; gene CTSF, 1 µM, vs DMSO) was 1.580. The “Log2(fold-change) CTSH” value ([1]; gene CTSH, 1 µM, vs DMSO) was 2.652, the “Log2(fold-change) CTSK” value ([1]; gene CTSK, 1 µM, vs DMSO) was 2.602 and the “Log2(fold-change) CTSS” value ([1]; gene CTSS, 1 µM, vs DMSO) was 1.574. For the same compound, the “Log2(fold-change) CTSZ” value ([1]; gene CTSZ, 1 µM, vs DMSO) was 0.095, the “Log2(fold-change) DNASE2” value ([1]; gene DNASE2, 1 µM, vs DMSO) was 0.759 and the “Log2(fold-change) ENTPD4” value ([1]; gene ENTPD4, 1 µM, vs DMSO) was -0.066. For the same compound, the “Log2(fold-change) EPDR1” value ([1]; gene EPDR1, 1 µM, vs DMSO) was 0.350, the “Log2(fold-change) FUCA1” value ([1]; gene FUCA1, 1 µM, vs DMSO) was 2.294 and the “Log2(fold-change) GAA” value ([1]; gene GAA, 1 µM, vs DMSO) was 1.285. The “Log2(fold-change) GALC” value ([1]; gene GALC, 1 µM, vs DMSO) was 0.272, the “Log2(fold-change) GALNS” value ([1]; gene GALNS, 1 µM, vs DMSO) was 0.664 and the “Log2(fold-change) GBA” value ([1]; gene GBA, 1 µM, vs DMSO) was 0.975. For the same compound, the “Log2(fold-change) GGH” value ([1]; gene GGH, 1 µM, vs DMSO) was -0.787, the “Log2(fold-change) GLA” value ([1]; gene GLA, 1 µM, vs DMSO) was 0.381 and the “Log2(fold-change) GLB1” value ([1]; gene GLB1, 1 µM, vs DMSO) was 0.633. The “Log2(fold-change) GM2A” value ([1]; gene GM2A, 1 µM, vs DMSO) was 0.722, the “Log2(fold-change) GNS” value ([1]; gene GNS, 1 µM, vs DMSO) was 1.166 and the “Log2(fold-change) GUSB” value ([1]; gene GUSB, 1 µM, vs DMSO) was -0.134. The “Log2(fold-change) HEXA” value ([1]; gene HEXA, 1 µM, vs DMSO) was 1.135, the “Log2(fold-change) HEXB” value ([1]; gene HEXB, 1 µM, vs DMSO) was 1.117 and the “Log2(fold-change) HGSNAT” value ([1]; gene HGSNAT, 1 µM, vs DMSO) was 0.896. The “Log2(fold-change) HPSE” value ([1]; gene HPSE, 1 µM, vs DMSO) was 1.426, the “Log2(fold-change) HYAL1” value ([1]; gene HYAL1, 1 µM, vs DMSO) was 0.217 and the “Log2(fold-change) HYAL2” value ([1]; gene HYAL2, 1 µM, vs DMSO) was -0.168. For the same compound, the “Log2(fold-change) IDS” value ([1]; gene IDS, 1 µM, vs DMSO) was 1.156, the “Log2(fold-change) IDUA” value ([1]; gene IDUA, 1 µM, vs DMSO) was 1.057 and the “Log2(fold-change) IFI30” value ([1]; gene IFI30, 1 µM, vs DMSO) was 1.145. The “Log2(fold-change) LAMP1” value ([1]; gene LAMP1, 1 µM, vs DMSO) was 1.227, the “Log2(fold-change) LAMP2” value ([1]; gene LAMP2, 1 µM, vs DMSO) was 1.082 and the “Log2(fold-change) LAPTM4A” value ([1]; gene LAPTM4A, 1 µM, vs DMSO) was 0.460. The “Log2(fold-change) LAPTM5” value ([1]; gene LAPTM5, 1 µM, vs DMSO) was 0.199, the “Log2(fold-change) LGMN” value ([1]; gene LGMN, 1 µM, vs DMSO) was 1.455 and the “Log2(fold-change) LIPA” value ([1]; gene LIPA, 1 µM, vs DMSO) was 0.574. The “Log2(fold-change) LITAF” value ([1]; gene LITAF, 1 µM, vs DMSO) was 1.022, the “Log2(fold-change) LMBRD1” value ([1]; gene LMBRD1, 1 µM, vs DMSO) was 0.119 and the “Log2(fold-change) MAN2B1” value ([1]; gene MAN2B1, 1 µM, vs DMSO) was 0.586. For the same compound, the “Log2(fold-change) MAN2B2” value ([1]; gene MAN2B2, 1 µM, vs DMSO) was 0.870, the “Log2(fold-change) MANBA” value ([1]; gene MANBA, 1 µM, vs DMSO) was 1.687 and the “Log2(fold-change) MCOLN1” value ([1]; gene MCOLN1, 1 µM, vs DMSO) was 2.564. For the same compound, the “Log2(fold-change) MFSD8” value ([1]; gene MFSD8, 1 µM, vs DMSO) was -0.317, the “Log2(fold-change) MPO” value ([1]; gene MPO, 1 µM, vs DMSO) was 1.298 and the “Log2(fold-change) NAAA” value ([1]; gene NAAA, 1 µM, vs DMSO) was 0.334. The “Log2(fold-change) NAGA” value ([1]; gene NAGA, 1 µM, vs DMSO) was 0.034, the “Log2(fold-change) NAGLU” value ([1]; gene NAGLU, 1 µM, vs DMSO) was 0.982 and the “Log2(fold-change) NCSTN” value ([1]; gene NCSTN, 1 µM, vs DMSO) was 0.166. The “Log2(fold-change) NEU1” value ([1]; gene NEU1, 1 µM, vs DMSO) was 2.366, the “Log2(fold-change) NEU4” value ([1]; gene NEU4, 1 µM, vs DMSO) was 1.289 and the “Log2(fold-change) NPC1” value ([1]; gene NPC1, 1 µM, vs DMSO) was 1.530. For the same compound, the “Log2(fold-change) NPC2” value ([1]; gene NPC2, 1 µM, vs DMSO) was 1.822, the “Log2(fold-change) OSTM1” value ([1]; gene OSTM1, 1 µM, vs DMSO) was 1.559 and the “Log2(fold-change) PCYOX1” value ([1]; gene PCYOX1, 1 µM, vs DMSO) was 0.963. The “Log2(fold-change) PPT1” value ([1]; gene PPT1, 1 µM, vs DMSO) was -0.819, the “Log2(fold-change) PPT2” value ([1]; gene PPT2, 1 µM, vs DMSO) was -0.987 and the “Log2(fold-change) PSAP” value ([1]; gene PSAP, 1 µM, vs DMSO) was 1.511. The “Log2(fold-change) RNASET2” value ([1]; gene RNASET2, 1 µM, vs DMSO) was 1.008, the “Log2(fold-change) SCARB2” value ([1]; gene SCARB2, 1 µM, vs DMSO) was 0.201 and the “Log2(fold-change) SCPEP1” value ([1]; gene SCPEP1, 1 µM, vs DMSO) was 1.441. For the same compound, the “Log2(fold-change) SGSH” value ([1]; gene SGSH, 1 µM, vs DMSO) was 0.983, the “Log2(fold-change) SIAE” value ([1]; gene SIAE, 1 µM, vs DMSO) was 0.365 and the “Log2(fold-change) SLC17A5” value ([1]; gene SLC17A5, 1 µM, vs DMSO) was 1.220. For the same compound, the “Log2(fold-change) SLC36A1” value ([1]; gene SLC36A1, 1 µM, vs DMSO) was 0.968, the “Log2(fold-change) SMPD1” value ([1]; gene SMPD1, 1 µM, vs DMSO) was 0.723 and the “Log2(fold-change) TMEM74” value ([1]; gene TMEM74, 1 µM, vs DMSO) was 2.173. For the same compound, the “Log2(fold-change) TMEM92” value ([1]; gene TMEM92, 1 µM, vs DMSO) was -1.444, the “Log2(fold-change) TPP1” value ([1]; gene TPP1, 1 µM, vs DMSO) was 1.361 and the “total (combined internal and secreted) PGRN-Luc signal” value [2] was “to the same extent as did panobinostat”.
